Results published in PMC10817097, “Caffeic Acid Phosphanium Derivatives: Potential Selective Antitumor, Antimicrobial and Antiprotozoal Agents” (International Journal of Molecular Sciences, 2024).
Values joined by “and” are separate entries in the source; they are usually repeats but may differ in a detail not shown here. Equal entries are not always repeated.

Test system: the other tested bacteria and the strain of Candida albicans
Assay: MIC/MBC, other tested bacteria and Candida albicans
Type: cell-based
Settings: listed as caffeic acid
Protocol: The antimicrobial activity of caffeic acid and its semi-synthetic derivates was tested against Gram-positive (Staphylococcus aureus CCM 4750, methicillin-resistant; Staphylococcus aureus CCM 4223, methicillin-susceptible; Enterococcus faecalis CCM 4224) and Gram-negative bacteria (Pseudomonas aeruginosa CCM 3955; Escherichia coli CCM 3954; Klebsiella pneumoniae CCM 4415; Proteus mirabilis CCM 7188), and one strain of a yeast Candida albicans (CCM 8267). Microbial strains were purchased from the Czech Collection of Microorganisms, Brno, Czech Republic, and preserved in aliquots in cryoprotective media at −20 °C until the testing. Revival of cryoprotected bacteria took place by overnight cultivation on blood agar and an additional passage on blood agar. Minimal inhibitory concentrations (MIC) against bacteria were detected by broth microdilution test in sterile 96-well U-shaped microtiter plates (Roll s.a.s., Piove di Sacco, Italy) according to the EUCAST recommendations. The test was performed in 100 μL volumes in microtiter plate wells with a final bacterial concentration of 5 × 10^5 CFU·mL^−1. […] The minimal bactericidal/fungicidal concentrations (MBC/MFC) were detected by point-inoculation of 5 μL aliquots from test wells without visible growth on solid agar media free of antimicrobials. […]

MIC/MBC: exceeded 6900 μM and > 1200 μg/mL
SMILES: O=C(O)C=Cc1ccc(O)c(O)c1 [CA, 3-(3,4-dihydroxyphenyl)-2-propenoic acid, reference compound]
